# Data as given in patent US7998978B2 (Pfizer Inc., priority 2006, dated 2011).
# Biological target: T1, JNK1α1 (Homo sapiens, UniProt P45983)
# T1 construct: catalytic domain containing amino acids 1-364 and N-terminal hexahistidine tag; hexahistidine (His6) (N); made in house; host or cells: E. coli BL21 (DE3)
# Assay: Coupled spectrophotometric (PK/LDH) JNK1α1 assay: % inhibition and Ki determination
# Type: biochemical
# Conditions: @1 uM; read-out: % Inhibition JNK-1
# Summary of the method: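 Initial rates were taken from the absorbance decrease at 340 nm at 30° C. Ki was fitted with a tight-binding model over 11 concentrations (top 100 μM); single-point inhibition was tested at 1 or 10 μM.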
# T1 sequence (P45983 1-364): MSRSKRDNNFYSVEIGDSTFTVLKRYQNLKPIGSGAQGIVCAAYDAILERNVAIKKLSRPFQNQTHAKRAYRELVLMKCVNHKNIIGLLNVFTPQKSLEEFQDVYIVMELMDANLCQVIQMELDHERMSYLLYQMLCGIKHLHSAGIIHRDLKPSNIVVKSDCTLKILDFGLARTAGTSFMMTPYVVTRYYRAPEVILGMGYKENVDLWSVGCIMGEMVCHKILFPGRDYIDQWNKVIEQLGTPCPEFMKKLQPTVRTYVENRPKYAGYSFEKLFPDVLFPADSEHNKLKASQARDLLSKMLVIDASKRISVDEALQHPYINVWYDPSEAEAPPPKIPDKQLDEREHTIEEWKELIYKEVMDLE
row,SMILES,inhibition at 1 µM
1,"O=C1CC[C@@H](COc2ccc3cnc(N[C@H]4CC[C@H](O)CC4)nc3c2)N1 [Example 280, (5S)-5-[({2-[(trans-4-hydroxycyclohexyl)amino]quinazolin-7-yl}oxy)methyl]pyrrolidin-2-one]",37%
2,"O[C@H]1CC[C@H](Nc2ncc3ccc(OC4CCOCC4)cc3n2)CC1 [Example 268, trans-4-{[7-(tetrahydro-2H-pyran-4-yloxy)quinazolin-2-yl]amino}cyclohexanol]",67%
3,"CC(C)(C)OCCOc1cccc2cnc(N[C@H]3CC[C@H](O)CC3)nc12 [Example 258, trans-4-{[8-(2-tert-butoxyethoxy)quinazolin-2-yl]amino}cyclohexanol]",30%
4,"COCCOc1cccc2cnc(N[C@H]3CC[C@H](O)CC3)nc12 [Example 256, trans-4-{[8-(2-methoxyethoxy)quinazolin-2-yl]amino}cyclohexanol]",29%

# Results, then the compound that gave them:
row,inhibition at 1 µM,SMILES
1,28%,"O[C@H]1CC[C@H](Nc2ncc3ccc(OCc4ccccc4CN4CCCC4)cc3n2)CC1 [Example 297, trans-4-[(7-{[2-(pyrrolidin-1-ylmethyl)benzyl]oxy}quinazolin-2-yl)amino]cyclohexanol]"
2,16%,"CCN1CC(CNC(=O)c2cccc3cnc(N[C@H]4CC[C@H](O)CC4)nc23)OCC1=O (stereo partly drawn) [Example 529, N-[(4-ethyl-5-oxomorpholin-2-yl)methyl]-2-[(trans-4-hydroxycyclohexyl)amino]quinazoline-8-carboxamide]"
3,21%,"O=C(N[C@H](CO)Cc1ccccc1)c1ccc2cnc(NC3CCC3)nc2c1 [Example 420, N-[(1S)-1-benzyl-2-hydroxyethyl]-2-(cyclobutylamino)quinazoline-7-carboxamide]"
4,16%,"CCn1cc(CNC(=O)c2cccc3cnc(N[C@H]4CC[C@H](O)CC4)nc23)cn1 [Example 489, N-[(1-ethyl-1H-pyrazol-4-yl)methyl]-2-[(trans-4-hydroxycyclohexyl)amino]quinazoline-8-carboxamide]"
5,14%,"O=C(NCc1ccc[nH]c1=O)c1cccc2cnc(N[C@H]3CC[C@H](O)CC3)nc12 [Example 477, 2-[(trans-4-hydroxycyclohexyl)amino]-N-[(2-oxo-1,2-dihydropyridin-3-yl)methyl]quinazoline-8-carboxamide]"
6,11%,"O=C(NCCN1CCCC1=O)c1cccc2cnc(N[C@H]3CC[C@H](O)CC3)nc12 [Example 493, 2-[(trans-4-hydroxycyclohexyl)amino]-N-(2-(2-oxopyrrolidin-1-yl)ethyl]quinazoline-8-carboxamide]"
7,12%,"Cc1nnc(CCNC(=O)c2cccc3cnc(N[C@H]4CC[C@H](O)CC4)nc23)[nH]1 [Example 478, 2-[(trans-4-hydroxycyclohexyl)amino]-N-[2-(5-methyl-4H-1,2,4-triazol-3-yl)ethyl]quinazoline-8-carboxamide]"
8,16%,"O=C(NCCc1cn2ccccc2n1)c1cccc2cnc(N[C@H]3CC[C@H](O)CC3)nc12 [Example 494, 2-[(trans-4-hydroxycyclohexyl)amino]-N-(2-imidazol[1,2-a]pyridin-2-ylethyl)quinazoline-8-carboxamide]"
9,15%,"CC(C)Nc1ncc2ccc(C(=O)N[C@@H](C)CO)cc2n1 [Example 434, N-[(1S)-2-hydroxy-1-methylethyl]-2-(isopropylamino)quinazoline-7-carboxamide]"

# Same assay, conditions: @10 uM; read-out: % Inhibition JNK-1
row,inhibition at 10 µM,SMILES
1,46%,"c1ccc(Cn2cccn2)c(CNc2cc3cc(-c4cn[nH]c4)ccc3cn2)c1 [Example 233, 6-(1H-pyrazol-4-yl)-N-[2-(1H-pyrazol-1-ylmethyl)benzyl]isoquinolin-3-amine]"

# Same assay, conditions: JNK-1
row,SMILES,Ki
1,"CN([C@H]1CC[C@H](Nc2ncc3cccc(C(=O)N[C@@H]4COC[C@H]4O)c3n2)CC1)S(C)(=O)=O (relative stereo) [Example 141, N-[(trans)-4-hydroxytetrahydrofuran-3-yl]-2-({trans-4-[methyl(methylsulfonyl)amino]cyclohexyl}amino)quinazoline-8-carboxamide]",29 nM
2,"O=C(Cc1ccc(C(F)(F)F)cc1)Nc1cc2cc(-c3cn[nH]c3)ccc2cn1 [Example 45, N-[6-(1H-pyrazol-4-yl)isoquinolin-3-yl]-2-[4-(trifluoromethyl)phenyl]acetamide]",21 nM
3,"O=C(c1cccc2cnc(N[C@H]3CC[C@H](O)CC3)nc12)N1CCOCC1 [Example 102, trans-4-{[8-(morpholin-4-ylcarbonyl)quinazolin-2-yl]amino}cyclohexanol]",992 nM
4,"O=C(Nc1cc2cc(-c3cn[nH]c3)ccc2cn1)C1NCc2ccccc21 (stereo not drawn) [Example 14, N-[6-(1H-pyrazol-4-yl)isoquinolin-3-yl]isoindoline-1-carboxamide]",> 50 nM
5,Fc1ccc2cnc(NC3CCCCC3)nc2c1 [Example 148],456 nM
6,"CC(=O)N[C@H]1CC[C@H](Nc2ncc3cccc(C(=O)N[C@@H]4CCC[C@H]4O)c3n2)CC1 (relative stereo) [Example 138, 2-{[trans-4-(acetylamino)cyclohexyl]amino}-N-[(trans)-2-hydroxycyclopentyl]quinazoline-8-carboxamide]",950 nM
7,"c1cc2cnc(NC3CCOCC3)nc2cc1O[C@H]1CCOC1 [Example 163, 7-[(3S)-tetrahydrofuran-3-yloxy]-N-(tetrahydro-2H-pyran-4-yl)quinazolin-2-amine]",1740 nM
8,"Cc1cc(C(=O)NCC(=O)Nc2cc3cc(-c4cn[nH]c4)ccc3cn2)no1 [Example 19, 5-methyl-N-(2-oxo-2-{[6-(1H-pyrazol-4-yl)isoquinolin-3-yl]amino}ethyl)isoxazole-3-carboxamide]",13 nM
9,"O=C(CCc1cc(Cl)no1)Nc1cc2cc(-c3cn[nH]c3)ccc2cn1 [Example 12, 3-(3-chloroisoxazol-5-yl)-N-[6-(1H-pyrazol-4-yl)isoquinolin-3-yl]propanamide]",29 nM
10,"O=C(Cn1cc(-c2ccccn2)nn1)Nc1cc2cc(-c3cn[nH]c3)ccc2cn1 [Example 30, N-[6-(1H-pyrazol-4-yl)isoquinolin-3-yl]-2-(4-pyridin-2-yl-1H-1,2,3-triazol-1-yl)acetamide]",18 nM
11,"Cc1ccc2cnc(N[C@H]3CC[C@H](O)CC3)nc2c1OCC(=O)NC(C)C [Example 208, 2-({2-[(trans-4-hydroxycyclohexyl)amino]-7-methylquinazolin-8-yl}oxy)-N-isopropylacetamide]",1130 nM
12,"COc1ccccc1-c1cccc2cnc(N[C@H]3CC[C@H](O)CC3)nc12 [Example 204, trans-4-{(8-(2-methoxyphenyl)quinazolin-2-yl]amino} cyclohexanol]",303 nM
13,"Cc1cc(OCCN(C)C)ccc1-c1cccc2cnc(N[C@H]3CC[C@H](O)CC3)nc12 [Example 203, trans-4-[(8-{4-[2-(dimethylamino)ethoxy]-2-methylphenyl}quinazolin-2-yl)amino] cyclohexanol]",815 nM
14,"O=C(NCc1ccccc1)c1ccc2cnc(N[C@H]3CC[C@H](O)CC3)nc2c1 [Example 62, N-benzyl-2-[(trans-4-hydroxycyclohexyl)amino]quinazoline-7-carboxamide]",432 nM

# Other lines, results leading:
row,Ki,SMILES
1,2170 nM,"CC(C)(O)c1ccc(CNC(=O)c2ccc3cnc(N[C@H]4CC[C@H](O)CC4)nc3c2)cc1 [Example 366, 2-[(trans-4-hydroxycyclohexyl)amino]-N-[4-(1-hydroxy-1-methylethyl)benzyl]quinazoline-7-carboxamide]"
2,83 nM,"CCC(CO)NC(=O)c1cccc2cnc(N[C@H]3CC[C@H](O)CC3)nc12 (stereo partly drawn) [Example 442, 2-[(trans-4-hydroxycyclohexyl)amino]-N-[1-(hydroxymethyl)propyl]quinazoline-8-carboxamide]"
3,424 nM,CC[C@H](C)[C@@H](CO)NC(=O)c1ccc2cnc(NC3CCCC3)nc2c1 [Example 396]
4,945 nM,"O=C(NCCO)c1ccc2cnc(N[C@H]3CC[C@H](O)CC3)nc2c1 [Example 346, 2-[(trans-4-hydroxycyclohexyl)amino]-N-(2-hydroxyethyl)quinazoline-7-carboxamide]"
5,254 nM,"O=C(NCC(O)c1ccc(F)c(F)c1)c1cccc2cnc(N[C@H]3CC[C@H](O)CC3)nc12 (stereo partly drawn) [Example 456, N-[2-(3,4-difluorophenyl)-2-hydroxyethyl]-2-[(trans-4-hydroxycyclohexyl)amino]quinazoline-8-carboxamide]"
6,106 nM,"O=C(NCC1(O)CCOc2ccccc21)c1cccc2cnc(N[C@H]3CC[C@H](O)CC3)nc12 (stereo partly drawn) [Example 444, 2-[(trans-4-hydroxycyclohexyl)amino]-N-[(4-hydroxy-3,4-dihydro-2H-chromen-4-yl)methyl]quinazoline-8-carboxamide]"
7,138 nM,"O=C(NC1CCN(c2cccnn2)CC1)c1cccc2cnc(N[C@H]3CC[C@H](O)CC3)nc12 [Example 449, 2-[(trans-4-hydroxycyclohexyl)amino]-N-(1-pyridazin-3-ylpiperidin-4-yl)quinazoline-8-carboxamide]"
8,2310 nM,"Cc1cccc(NC(=O)c2ccc3cnc(N[C@H]4CC[C@H](O)CC4)nc3c2)n1 [Example 369, 2-[(trans-4-hydroxycyclohexyl)amino]-N-(6-methylpyridin-2-yl)quinazoline-7-carboxamide]"
9,119 nM,"O=C(NC1CC1)c1cccc2cnc(N[C@H]3CC[C@H](O)CC3)nc12 [Example 447, N-cyclopropyl-2-[(trans-4-hydroxycyclohexyl)amino]quinazoline-8-carboxamide]"
10,2050 nM,"CNC(=O)N1CCC(NC(=O)c2cccc3cnc(N[C@H]4CC[C@H](O)CC4)nc23)CC1 [Example 467, 2-[(trans-4-hydroxycyclohexyl)amino]-N-{1-[(methylamino)carbonyl]piperidin-4-yl}quinazoline-8-carboxamide]"
11,144 nM,"CC(C)C(CO)NC(=O)c1cccc2cnc(N[C@H]3CC[C@H](O)CC3)nc12 (stereo partly drawn) [Example 450, 2-[(trans-4-hydroxycyclohexyl)amino]-N-[1-(hydroxymethyl)-2-methylpropyl]quinazoline-8-carboxamide]"
